Test results from patent US20140234345A1, “NOVEL ANTI-CANCER ISOC[…] CONJUGATES” (priority 2011, published 2014).

Columns and labels:
[1] = system: A549, BxPC-3, HeLa, LoVo, MCF-7 and PC-3 cells; experiment: In vitro testing on various tumour cell lines (Alamar Blue cell viability); format: cell-based; details: after 48 hours
Method: (§1) A549 (CCL-185), BxPC-3 (CRL-1687), HeLa (CCL-2), LoVo (CCL-229), MCF-7 (HTB-22), and PC-3 (CRL-1435) cells were purchased from ATCC (Manassas, Va.). Alamar Blue was purchased from Invitrogen Canada Inc. (Burlington, ON). All other tissue culture and reagent grade materials were purchased from either VWR (Mississauga, ON) or Sigma Aldrich (Oakville, ON).
(§2) All cell lines were maintained at 37° C. in a CO2 cell culture incubator with 5% CO2 and 95% humidity. A549, Lovo, and PC-3 cells were cultured in F-12K media, BxPC-3 cells were culture in RPMI-1640 media, and HeLa and MCF-7 cells were cultured in Eagle's Minimum Essential Media (MEM) with […]. All cell culture media was supplemented with 10% fetal bovine serum (FBS), […] Penicillin, 0.1 mg/mL Streptomycin, 2.5 μg/mL Amphotericin B, and 50 μg/mL Gentamycin. In addition, MEM media for MCF-7 cells also contained 0.01 mg/mL bovine insulin.

[2] = system: pancreas tumour cell line; experiment: In vitro tumour cell line testing, pancreas; format: cell-based; details: for effect on pancreas tumour cell line: after 48 hours
Method: as §1, §2

[3] = system: colorectal tumour cell line; experiment: In vitro tumour cell line testing, colorectal; format: cell-based; details: for effect on colorectal tumour cell line: after 48 hours
Method: as §1, §2

[4] = system: prostate tumour cell line; experiment: In vitro tumour cell line testing, prostate; format: cell-based; details: for effect on prostate tumour cell line: after 48 hours
Method: as §1, §2

[5] = system: cervical tumour cell line; experiment: In vitro tumour cell line testing, cervical; format: cell-based; details: for effect on cervical tumour cell line: after 48 hours
Method: as §1, §2

lung tumour cells = experiment: In vitro tumour cell line testing, lung; format: cell-based; details: after 72 hours
Method: as §1, §2

[6] = Cell viability of healthy PBMC
Method: (§3) All cell lines were plated in black, tissue culture treated, 96 well plates at a cell density of 1×10^5 celis/mL (1×10^4 cells/well). Cells were allowed 24 h to attach to the plate prior to being dosed with drug. […] Cells were allowed to incubate for 48 or 72 h. Following incubation cells were stained with Alamar Blue such that the final concentration of Alamar Blue in the test well was 10%. Cells were stained for 2 h and then fluorescence was measured on a Molecular Devices Analyst GT multimode plate reader using an excitation filter of 530/25 nm and an emission filter of 580/10 nm and a 561 nm dichroic mirror. Cell viability was expressed as a percentage of untreated control cells. Data are expressed as mean±standard error and are the average of four independent cell preparations.
(§4) Healthy PBMC (Peripheral Blood Mononuclear Cells) were treated similarly to the above tumour cell line tests.

[7] = system: Healthy PBMC (Peripheral Blood Mononuclear Cells); experiment: Cell viability of healthy PBMC
Method: as §3, §4

[8] = Amount of I(a) dissolved in Vitamin E TPGS composition (HPLC assay of centrifugate); format: physicochemical; details: 15:100 w/w I(a):Vitamin E TPGS, 45° C., water 8 ml per 100 mg Vitamin E, centrifuged
Method: A stir bar was then added and the solution was continuously mixed while at 45° C. for a minimum of 2 hours to allow full saturation of the product. […] The mixture was then cooled to room temperature, and centrifuged to separate the undissolved material. The centrifugate was assayed for the amount of compound I(a) using HPLC.

[9] = I(a) concentration in Cremophor EL:ethanol composition (HPLC); format: physicochemical; details: 1:60 w/w I(a):CrEL, ethanol 1:1 v/v to CrEL, room temperature
Method: One to sixty (1:60) ratio by weight of compound I(a) to CrEL was mixed into a glass vial and stirred for about one hour at room temperature to allow solubilization. Dehydrated ethanol USP was then added at a ratio (v/v) one to one (1:1) to CrEL. The mixture was stirred for half hour to ensure the dissolution of the mixture. The final solution was then tested by HPLC to verify compound I(a) concentration.

| Structure (SMILES) | anti-cancer effect against a wide variety of cancers [1] | effect on pancreas tumour cell line [2] | effect on colorectal tumour cell line [3] | effect on prostate tumour cell line [4] | effect on cervical tumour cell line [5] | effect against pancreas cancer ([2]; after 72 hours) | effect against colorectal cancer ([3]; after 72 hours) | results on prostate tumour cells ([4]; after 72 hours) | results on cervical tumour cells ([5]; after 72 hours) | results on lung tumour cells (lung tumour cells) | viability [6] | viability at 2.265 µM [6] | selectivity for cancer cells over healthy cells ([7]; PBMC tests compared to tumour cell line tests) | PBMC cell death compared to narciclasine ([7]; in DMSO, 48 and 72 hours) | amount of I(a) contained in resultant formulation [8] | amount of I(a) contained in resultant formulation [9] |
| --- | --- | --- | --- | --- | --- | --- | --- | --- | --- | --- | --- | --- | --- | --- | --- | --- |
| O=C1N[C@@H]2C(=C[C@H](O)[C@@H](O)[C@H]2O)c2cc3c(c(O)c21)OCO3 [narciclasine, reference compound] | strong anti-cancer effect | strong effect | strong effect | strong effect | strong effect | – | – | – | – | – | – | – | – | – | – | – |
| CC/C=C\C/C=C\C/C=C\C/C=C\C/C=C\C/C=C\CCC(=O)O[C@H]1C=C2c3cc4c(c(O)c3C(=O)N[C@H]2[C@H](O)[C@@H]1O)OCO4 [Compound I(a), Narciclasine 2-Hydroxy DHA Conjugate] | strong anti-cancer effect | strong effect | strong effect | strong effect | strong effect | works well | works well | good results | good results | good results | ~90% | > 60% | selectively kill cancer cells at a much higher percentage than healthy cells | small increase of cell death | 1.8 to 1.9 mg/mL | 9.9 mg/mL |
